Several values for one entry are separate records, joined by “and”; a condition that tells them apart may be missing. Identical values can stand only once.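 Grown in 96-well plates, cells were treated for 48 hours with each compound at five concentrations. Insufficient inhibition: endpoint recorded as highest concentration tested. At the GI50, growth is halved. Definition used: TGI = concentration required for complete inhibition of growth.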

What all share (experiment): inhibition of tumour cell growth, NCI panel, 48 h
Assay [1] concerns K-562 leukemia.
Assay [2] relates to PC-3 prostate.
Assay [3] deals with HOP-92 NSCLC.
For assay [4], the system named is SW-620 colon.
Assay [5] concerns HCT-116 colon.
The test system of assay [6] is HL-60(TB) leukemia.
The subject of assay [7] is MDA-MB-231 breast.
Assay [8] deals with SF-295 CNS.
Assay [9] concerns UO-31 renal.
Assay [10] has as its system COLO 205 colon.

On to `Nc1nc(F)nc2c1ncn2C1OC(CO)C(O)C1O` (stereo unspecified), for which the TGI in assay [1] was over 100 µM; in assay [2], over 100 µM; in assay [3] it was > 100 µM and 97.6 µM; in assay [4], over 100 µM; in assay [5], over 100 µM; in assay [6] it was over 100 µM. Also, the TGI in assay [7], in assay [8], in [9] and in assay [10] was over 100 µM throughout. Besides, the GI50 is 41.6 µM in assay [2]; 14 µM in assay [3]; 60.2 µM in assay [4]; 19.4 µM in assay [5]; 3.3 µM in assay [6]; 5.1 µM in assay [9]. The GI50 in assay [10] was 27.8 µM.
Regarding `Nc1ccn(C2CCC(CO)O2)c(=O)n1` (stereo unspecified), the GI50 in assay [1], in [3], in [4], in assay [5], in [8] and in assay [10] was over 1000 µM throughout. For the same molecule, the TGI in assay [1], in [2], in [3], in assay [4], in assay [5] and in assay [6] was over 1000 µM each time. In addition, the TGI in [7], in [8], in assay [9] and in assay [10] was over 1000 µM each time.
In the case of `CC(=O)C(=CN1CCN(C(=O)c2ccco2)C1=S)C(C)=O`, the GI50 in assay [1] is 38.4 µM; in assay [2], 4.83 µM; in [3] it was 11.7 µM; in assay [4], 14.6 µM; in assay [5], 4.05 µM; in assay [6], 5.79 µM. Moreover, the GI50 in assay [7] is 2.62 µM; in assay [8] it was 21.7 µM; in assay [9], 2.92 µM; in assay [10] it was 23.4 µM. For the same molecule, the TGI in assay [1] was over 100 µM; in assay [2], 46.6 µM; in assay [3], 46 µM; in assay [4], 31.3 µM; in assay [5], 13.7 µM; in [6], over 100 µM. Also, the TGI was determined as 6.96 µM in assay [7], 52.6 µM in [8], 10.8 µM in [9] and 54.9 µM in assay [10].
Regarding `CCc1nc(C(N)=O)c(Nc2ccc(N3CCC(N4CCN(C)CC4)CC3)c(OC)c2)nc1NC1CCOCC1`, the TGI in assay [1] is 33 µM and > 2.39 µM and 45.4 µM; in assay [2] it was 25.7 µM and > 10 µM and 26 µM; in assay [3] it was 1.62 µM and 0.64 µM and 1.63 µM; in assay [4], 13.6 µM and > 10 µM and 14.8 µM; in assay [5] it was 14.1 µM and > 10 µM and 14.9 µM; in assay [6], 11.3 µM and > 10 µM and 14.9 µM. Moreover, the TGI in assay [7] is 17.7 µM and > 10 µM and 17.2 µM; in assay [8], 15.3 µM and > 3.5 µM and 17.3 µM; in assay [9], 8.61 µM and > 10 µM and 8.63 µM; in assay [10], 9.65 µM and > 1.98 µM and 14.2 µM. The GI50 is 0.173 µM and 0.0827 µM and 0.247 µM in [3]; 1.33 µM and 0.366 µM and 1.29 µM in assay [4]; 1.39 µM and 0.34 µM and 1.23 µM in assay [5]; 0.871 µM and 0.367 µM and 0.968 µM in assay [6]; 3.38 µM and 0.829 µM and 3.52 µM in assay [7]; 3.59 µM and 1.02 µM and 4.54 µM in assay [8]. Also, the GI50 was 1.01 µM and 0.282 µM and 1.23 µM in assay [9]; 1.55 µM and 0.281 µM and 1.57 µM in [10].
For `COc1ccc(/C=C/c2cc(OC)cc(=O)o2)cc1`, the TGI in [1], in [2], in [3], in [4], in assay [5] and in [6] was over 100 µM each time. The TGI in [7], in [8], in assay [9] and in [10] was over 100 µM in each case.
In the case of `Clc1ccc(C=Nc2ccc3c(c2)Cc2ccccc2-3)c(Cl)c1`, the TGI in [1], in assay [2], in assay [3], in [4], in [5] and in assay [6] was over 100 µM in each case. For the same molecule, the TGI in assay [7], in assay [8], in [9] and in assay [10] was over 100 µM in each case.
Regarding `O=C1Nc2ccc(F)cc2/C1=C/c1ccc[nH]1`, the GI50 in [1] was over 25 µM; in assay [2], over 25 µM; in [3], over 14.1 µM; in assay [4] it was 24.6 µM; in [5], over 23.7 µM; in [6], over 25 µM. Also, the GI50 in [7] is 7.65 µM; in assay [8], over 25 µM; in [9] it was over 16.8 µM; in assay [10] it was over 25 µM. For the same molecule, the TGI in [1], in assay [2], in assay [3], in [4], in assay [5] and in assay [6] was over 25 µM in each case. The TGI in [7], in [8], in assay [9] and in assay [10] was over 25 µM each time.
`Br[C](Br)(Br)[Hg][c]1ccccc1`: the GI50 in assay [1] was 0.275 µM; in [2], 14.7 µM; in [3] it was 12.5 µM; in assay [4] it was 1.65 µM; in assay [5] it was 19.7 µM; in [6], 2.28 µM. Besides, the GI50 in [7] is 18.1 µM; in assay [8], 15.6 µM; in assay [9] it was 20.2 µM; in assay [10], 4.55 µM. Also, the TGI in assay [1] was determined as 5.02 µM; in [2] it was 28 µM; in assay [3], 25.3 µM; in [4] it was 8.01 µM; in assay [5], 47.9 µM; in assay [6] it was 6.62 µM. The TGI was determined as 41.3 µM in [7], 30 µM in assay [8], 34.5 µM in [9] and 16.2 µM in assay [10].
For `CC1=C[C@H]2c3c(c(O)c(O)c4oc(-c5ccccc5)cc(=O)c34)[C@H](c3cc(O)c(O)c4oc(-c5ccccc5)cc(=O)c34)[C@H]2C(C)(C)C1`, the GI50 in assay [1] was 0.294 µM; in assay [2] it was 1.44 µM; in [3] it was 1.36 µM; in assay [4], 0.934 µM; in [5] it was 0.272 µM; in assay [6], 2.33 µM. Moreover, the GI50 in assay [7] is 2.71 µM; in [8], 0.312 µM; in assay [9] it was 0.527 µM; in assay [10], 1.48 µM. The TGI in assay [1] was over 75 µM; in assay [2], 14.8 µM; in [3], 5.84 µM; in assay [4], 13.9 µM; in assay [5], 1.45 µM; in assay [6] it was 7.33 µM. Also, the TGI in assay [7] worked out at 17.7 µM; in [8], 1.76 µM; in [9], 2 µM; in assay [10], 11.6 µM.

(Values after PubChem BioAssay (NCI).)
